Converted amounts (≈) assume the structure as drawn.
Key:
Format in all cases: cell-based
Pseudomonas #28 = experiment: In vitro minimal inhibitory concentration, Pseudomonas #28; conditions: Pseudomonas #28, in vitro; for MIC: read-out: Minimal Inhibitory Concentration
Pseudomonas BRK 12-4-4 = experiment: In vitro minimal inhibitory concentration, Pseudomonas BRK 12-4-4; conditions: for MIC: BRK1244
Pseudomonas UI 18 = experiment: In vitro minimal inhibitory concentration, Pseudomonas UI 18; conditions: for MIC: UI18
E. Coli. Brig = experiment: In vitro minimal inhibitory concentration, E. Coli. Brig; conditions: for MIC: Escherichia coli
E. Coli. Vogel = experiment: In vitro minimal inhibitory concentration, E. Coli. Vogel; conditions: for MIC: Escherichia coli
Prot Vulg. = experiment: In vitro minimal inhibitory concentration, Prot Vulg.
Entero Cloac. IM 11 = experiment: In vitro minimal inhibitory concentration, Entero Cloac. IM 11
Serr. Mar. IMM 16 = experiment: In vitro minimal inhibitory concentration, Serr. Mar. IMM 16
Klebs. Pneum. MGH 2 = experiment: In vitro minimal inhibitory concentration, Klebs. Pneum. MGH 2
Strep. fec. MGH 2 = experiment: In vitro minimal inhibitory concentration, Strep. fec. MGH 2
Staph UC76 = experiment: In vitro minimal inhibitory concentration, Staph UC76
Staph S 18713 = experiment: In vitro minimal inhibitory concentration, Staph S 18713

Row | Structure (SMILES) | MIC (Pseudomonas #28) [µg/mL] | MIC (Pseudomonas BRK 12-4-4) [µg/mL] | MIC (Pseudomonas UI 18) [µg/mL] | MIC (E. Coli. Brig) [µg/mL] | MIC (E. Coli. Vogel) [µg/mL] | MIC (Prot Vulg.) [µg/mL] | MIC (Entero Cloac. IM 11) [µg/mL] | MIC (Serr. Mar. IMM 16) [µg/mL] | MIC (Klebs. Pneum. MGH 2) [µg/mL] | MIC (Strep. fec. MGH 2) [µg/mL] | MIC (Staph UC76) [µg/mL] | MIC (Staph S 18713) [µg/mL] | also measured
1 | CC(=O)N1CCC[C@H]1C(=O)Nc1ccc(-c2ccc(C(=O)N[C@@H](C(=O)NC3C(=O)N4C(C(=O)O)=C(CSc5nnnn5C)CSC34)c3ccccc3)c(=O)[nH]2)cc1 (stereo partly drawn) [Example 2, N-[6-[4-(N-Acetyl-L-prolylamino)phenyl]-1,2-dihydro-2-oxonicotinyl]-7-[D-2-amino-2-phenylacetamido]-3-[[(1-methyl-1H-tetrazol-5-yl)thio]methyl]-3-cephem-4-carboxylic acid] | 12.5 (≈ 15.4 µM) | 25 (≈ 30.8 µM) | 12.5 (≈ 15.4 µM) | 6.3 (≈ 7.75 µM) | 1.6 (≈ 1.97 µM) | 25 (≈ 30.8 µM) | 6.3 (≈ 7.75 µM) | 12.5 (≈ 15.4 µM) | 1.6 (≈ 1.97 µM) | 25 (≈ 30.8 µM) | 0.8 (≈ 0.984 µM) | 3.1 (≈ 3.81 µM) | 
2 | CC(=O)N[C@H](C)C(=O)Nc1ccc(-c2ccc(C(=O)N[C@@H](C(=O)NC3C(=O)N4C(C(=O)O)=C(CSc5nnnn5CC(=O)O)CSC34)c3ccccc3)c(=O)[nH]2)cc1 (stereo partly drawn) [Example 1, N-[6-[4-(N-Acetyl-D-alanylamino)phenyl]-1,2-dihydro-2-oxonicotinyl]-7-[D-2-amino-2-phenylacetamido]-3-[[(1-carboxymethyl-1H-tetrazol-5-yl)thio]methyl]-3-cephem-4-carboxylic acid] | 6.3 (≈ 7.58 µM) | 12.5 (≈ 15 µM) | 6.3 (≈ 7.58 µM) | 6.3 (≈ 7.58 µM) | 0.4 (≈ 0.481 µM) | 3.1 (≈ 3.73 µM) | 3.1 (≈ 3.73 µM) | 12.5 (≈ 15 µM) | 3.1 (≈ 3.73 µM) | > 50 | 3.1 (≈ 3.73 µM) | 12.5 (≈ 15 µM) | 
3 | CC(=O)N[C@H](C)C(=O)Nc1ccc(-c2ccc(C(=O)N[C@@H](C(=O)NC3C(=O)N4C(C(=O)O)=C(CSc5nnnn5CCC(=O)O)CSC34)c3ccccc3)c(=O)[nH]2)cc1 (stereo partly drawn) [Example 41] | 6.3 (≈ 7.46 µM) | 12.5 (≈ 14.8 µM) | 12.5 (≈ 14.8 µM) | 6.3 (≈ 7.46 µM) | 0.8 (≈ 0.947 µM) | 3.1 (≈ 3.67 µM) | 6.3 (≈ 7.46 µM) | 12.5 (≈ 14.8 µM) | 1.6 (≈ 1.89 µM) | 50 (≈ 59.2 µM) | 3.1 (≈ 3.67 µM) | 12.5 (≈ 14.8 µM) | 
4 | CC(=O)N[C@@H](C)C(=O)Nc1ccc(-c2ccc(C(=O)N[C@@H](C(=O)NC3C(=O)N4C(C(=O)O)=C(CSc5nnc(C)s5)CSC34)c3ccccc3)c(=O)[nH]2)cc1 (stereo partly drawn) [Example 15, N-[6-[4-(N-Acetyl-L-alanylamino)phenyl]-1,2-dihydro-2-oxonicotinyl]-7-[D-2-amino-2-phenylacetamido]-3-[([5-methyl-1,3,4-thiadiazolyl-2-yl]thio)methyl]-3-cephem-4-carboxylic acid] | 12.5 (≈ 15.6 µM) | 12.5 (≈ 15.6 µM) | 12.5 (≈ 15.6 µM) | 6.3 (≈ 7.85 µM) | 1.6 (≈ 1.99 µM) | 12.5 (≈ 15.6 µM) | 12.5 (≈ 15.6 µM) | 25 (≈ 31.1 µM) | 3.1 (≈ 3.86 µM) | 12.5 (≈ 15.6 µM) | 0.4 (≈ 0.498 µM) | 6.3 (≈ 7.85 µM) | 
5 | CC(=O)N[C@H](C)C(=O)Nc1ccc(-c2ccc(C(=O)N[C@@H](C(=O)NC3C(=O)N4C(C(=O)O)=C(COC(C)=O)CSC34)c3ccc(O)cc3)c(=O)[nH]2)cc1 (stereo partly drawn) [Example 8, N-[6-[4-(N-Acetyl-D-alanylamino)phenyl]-1,2-dihydro-2-oxonicotinyl]-7-[D-2-amino-2-(4-hydroxyphenyl)acetamido]-3-acetoxymethyl-3-cephem-4-carboxylic acid] | 1.6 (≈ 2.14 µM) | 6.3 (≈ 8.44 µM) | 3.1 (≈ 4.15 µM) | 12.5 (≈ 16.7 µM) | 3.1 (≈ 4.15 µM) | 12.5 (≈ 16.7 µM) | 12.5 (≈ 16.7 µM) | 50 (≈ 67 µM) | 6.3 (≈ 8.44 µM) | 12.5 (≈ 16.7 µM) | 1.6 (≈ 2.14 µM) | 6.3 (≈ 8.44 µM) | 
6 | CC(=O)OCC1=C(C(=O)O)N2C(=O)C(NC(=O)[C@H](NC(=O)c3ccc(-c4ccc(NC(=O)[C@@H]5CCC(=O)N5C)cc4)[nH]c3=O)c3ccccc3)C2SC1 (stereo partly drawn) [Example 34, N-[6-[4-[N-Methyl-5-oxo-L-prolylamino]phenyl]-1,2-dihydro-2-oxo-nicotinyl]-7-[D-2-amino-2-phenylacetamido]-3-acetoxymethyl-3-cephem-4-carboxylic acid] | 6.3 (≈ 8.48 µM) | 12.5 (≈ 16.8 µM) | 6.3 (≈ 8.48 µM) | 12.5 (≈ 16.8 µM) | 3.1 (≈ 4.17 µM) | 12.5 (≈ 16.8 µM) | 12.5 (≈ 16.8 µM) | 50 (≈ 67.3 µM) | 6.3 (≈ 8.48 µM) | 25 (≈ 33.7 µM) | 0.4 (≈ 0.539 µM) | 3.1 (≈ 4.17 µM) | 
7 | CC(=O)OCC1=C(C(=O)O)N2C(=O)C(NC(=O)[C@H](NC(=O)c3ccc(-c4ccc(NC(=O)[C@@H]5CC(OC(C)=O)CN5C(C)=O)cc4)[nH]c3=O)c3ccccc3)C2SC1 (stereo partly drawn) [Example 32, N-[6-[4-[N-Acetyl-4-(acetyloxy)-L-prolylamino]phenyl]-1,2-dihydro-2-oxoniotinyl]-7-[D-2-amino-2-phenylacetamido]-3-acetoxymethyl-3-cephem-4-carboxylic acid] | 12.5 (≈ 15.3 µM) | 25 (≈ 30.7 µM) | 12.5 (≈ 15.3 µM) | 25 (≈ 30.7 µM) | 6.3 (≈ 7.73 µM) | 25 (≈ 30.7 µM) | 25 (≈ 30.7 µM) | > 50 | 12.5 (≈ 15.3 µM) | 25 (≈ 30.7 µM) | 1.6 (≈ 1.96 µM) | 6.3 (≈ 7.73 µM) | 
8 | Cn1nnnc1SCC1=C(C(=O)O)N2C(=O)C(NC(=O)[C@H](NC(=O)c3ccc(-c4ccc(NC(=O)[C@@H]5CCC(=O)N5)cc4)[nH]c3=O)c3ccccc3)C2SC1 (stereo partly drawn) [Example 7, N-[6-[4-(L-Pyroglutamylamino)phenyl]-1,2-dihydro-2-oxonicotinyl]-7-[D-2-amino-2-phenylacetamido]-3-[[(1-methyl-1H-tetrazol-5-yl)thio]methyl]-3-cephem-4-carboxylic acid] | 6.3 (≈ 8.03 µM) | 6.3 (≈ 8.03 µM) | 6.3 (≈ 8.03 µM) | 3.1 (≈ 3.95 µM) | 0.8 (≈ 1.02 µM) | 12.5 (≈ 15.9 µM) | 3.1 (≈ 3.95 µM) | 12.5 (≈ 15.9 µM) | 1.6 (≈ 2.04 µM) | 12.5 (≈ 15.9 µM) | 0.4 (≈ 0.51 µM) | 3.1 (≈ 3.95 µM) | 
9 | CC(=O)OCC1=C(C(=O)O)N2C(=O)C(NC(=O)[C@H](NC(=O)c3ccc(-c4ccc(NC(=O)[C@@H](C)N)cc4)[nH]c3=O)c3ccccc3)C2SC1 (stereo partly drawn) [Example 29, N-[6-[4-(D-Alanylamino)phenyl]-1,2-dihydro-2-oxonicotinyl]-7-[D-2-amino-2-phenylacetamido]-3-acetoxymethyl-3-cephem-4-carboxylic acid] |  |  |  |  |  |  |  |  |  |  |  |  | Minimal Inhibitory Concentration (Pseudomonas #28): 1.6 µg/mL; Minimal Inhibitory Concentration (Pseudomonas BRK 12-4-4): 1.6 µg/mL; Minimal Inhibitory Concentration (Pseudomonas UI 18): 1.6 µg/mL; Minimal Inhibitory Concentration (E. Coli. Brig): 6.3 µg/mL; Minimal Inhibitory Concentration (E. Coli. Vogel): 1.6 µg/mL; Minimal Inhibitory Concentration (Prot Vulg.): 6.3 µg/mL; Minimal Inhibitory Concentration (Entero Cloac. IM 11): 12.5 µg/mL; Minimal Inhibitory Concentration (Serr. Mar. IMM 16): 25 µg/mL; Minimal Inhibitory Concentration (Klebs. Pneum. MGH 2): 6.3 µg/mL; Minimal Inhibitory Concentration (Strep. fec. MGH 2): 12.5 µg/mL; Minimal Inhibitory Concentration (Staph UC76): 0.4 µg/mL; Minimal Inhibitory Concentration (Staph S 18713): 1.6 µg/mL
10 | CC(=O)N[C@@H](CCC(N)=O)C(=O)Nc1ccc(-c2ccc(C(=O)N[C@@H](C(=O)NC3C(=O)N4C(C(=O)O)=C(COC(C)=O)CSC34)c3ccccc3)c(=O)[nH]2)cc1 (stereo partly drawn) [Example 14, N-[6-[4-(N-Acetyl-L-glutaminylamino)phenyl]-1,2-dihydro-2-oxonicotinyl]-7-[D-2-amino-2-phenylacetamido]-3-acetoxymethyl-3-cephem-4-carboxylic acid] | 3.1 (≈ 3.93 µM) | 6.3 (≈ 8 µM) | 6.3 (≈ 8 µM) | 6.3 (≈ 8 µM) | 1.6 (≈ 2.03 µM) | 25 (≈ 31.7 µM) | 12.5 (≈ 15.9 µM) | 50 (≈ 63.5 µM) | 3.1 (≈ 3.93 µM) | 12.5 (≈ 15.9 µM) | 0.8 (≈ 1.02 µM) | 1.6 (≈ 2.03 µM) | 

Reference: patent publication US4311698A, “Aminoacid derivatives of cephalosporin compounds” (priority 1980, dated 1982)
